Source: US10150734B2, “Solid forms of 2-(5-(3-fluorophenyl)-3-hydroxypicolinamido)acetic acid, compositions, and uses thereof” (Akebia Therapeutics, Inc., priority 2015, dated 2018)
Values after ≈ are worked out from the molar mass of the structure shown. “Also recorded” adds a separate entry of the source. Like-named read-outs stand apart in the source and are kept apart here.

Tests used:
[1] = Thermal stability experiments (solid stored at 60 °C; XRPD and HPLC); conditions: for XRPD, aliquot time point Day 1 / XRPD, aliquot time point Day 7: solid stored at 60.0 °C; for Physical form / XRPD pattern change after storage at 60 °C for seven days (in words) / Chemical stability / degradation by HPLC after storage at 60 °C for seven days (in words): solid
[2] = Competitive slurry of calcium, potassium and sodium salts in acetone; type: physicochemical; conditions: for Outcome of competitive slurry of salts (in words): acetone (50 μL water added for potassium and sodium salts), room temperature, one and seven days; for XRPD of solids, aliquot time point Day 1 / XRPD of solids, aliquot time point Day 7: RT
Method: Calcium, sodium, and potassium salts were used to setup different competitive slurry experiments. For competitive slurry of calcium salts (˜5-6 mg of Salt I and Salt II) were weighed into a 5.0 mL clear vial equipped with magnetic stir bars. These steps were repeated for potassium salt material (˜5-6.5 mg of Salt III) and sodium salt materials (˜2.6-6.4 mg of Salt IV and Salt V). […] All slurries, 400 μL, were filtered through 0.45 micron centrifuge filters after one and seven days of equilibration. The solids were analyzed by XRPD to check for salt conversion (Table 36).

[3] = Aqueous solubility (slurry in deionized water at room temperature, filtrate by HPLC, solids by XRPD); conditions: for Solubility / Aqueous Solubility: deionized water; for Solubility: equilibrated with stirring, filtrate by HPLC; for Aqueous Solubility: standard curve linear range 0.008 to 0.2 mg/mL; for Aqueous Solubility: XRPD (1 day) of solids: solid form after 1 day slurry in water
Method: Approximately 14-25 mg of Forms A, D and G were transferred to 20 mL vials equipped with magnetic stir bars. 1.0 mL of deionized water was added and the resulting free flowing slurry was allowed to equilibrate over 1 and 7 days period with stirring at room temperature. […] The filtrates were analyzed by HPLC to determine solubility.

[4] = Dynamic vapour sorption (moisture sorption) with XRPD of post-DVS material; type: physicochemical; conditions: for Moisture Sorption (hygroscopicity in words): from uptake at 60% and 90% RH; for XRPD analysis of the post-DVS material: after DVS and drying at 60 °C for 2 hours; for Hygroscopicity (in words): from DVS moisture sorption
Method: Dynamic vapour sorption experiment was carried out by first holding the sample at 40% RH and 25.0° C. until an equilibrium weight was reached or for a maximum of four hours. The sample was then subjected to an isothermal (at 25.0° C.) adsorption scan from 40 to 90% RH in steps of 10%. The sample was allowed to equilibrate to an asymptotic weight at each point for a maximum of four hours. Following adsorption, a desorption scan from […] to 5% RH (at 25.0° C.) was run in steps of 10% again allowing a maximum of four hours for equilibration to an asymptotic weight. An adsorption scan was then performed from 0 to 40% RH in steps of 10%. The sample was then dried for no less than two hours at 60.0° C. and the resulting solid analyzed by XRPD.

[5] = Stability of crystalline materials from selected salts in different humidity (XRPD); type: physicochemical; conditions: for XRPD Post humidity exposure: 65% RH, RT; for XRPD Initial: before humidity exposure
Description: Table 49 provides thermal stability data. Table 50 provides TGA thermal data.

[6] = Thermal holding (TGA thermal hold) experiments of salts, XRPD of resulting solid; type: physicochemical; conditions: for XRPD Post thermal hold / XRPD Post thermal hold, sample left on bench top, 24 hrs: 30-130 °C at 10 °C/min, hold 130 °C/2 min; for XRPD Post thermal hold, sample left on bench top, 24 hrs: then bench top 24 hrs; for XRPD of solid after thermal hold at 130 °C for 2 minutes: held at 130 °C for 2 minutes, cooled to ambient temperature; for XRPD Pre-thermal hold: before TGA thermal hold
Method: Salt I, Salt II, Salt III, Salt IV, Salt V, Salt VI, Salt VII, Salt VIII, Salt IX and Salt X were characterized to evaluate its physical form and stability.
In an effort to isolate a high melt crystal form, the material was held at 130° C. for 2 minutes followed by cooling to ambient temperature.
In an effort to isolate a high melt crystal form through a dehydration/recrystallization process, Salt IV was held at 130° C. for 2 minutes followed by cooling to ambient temperature.

[7] = as above; type: physicochemical
[8] = Single form slurry experiments of Forms A, D and G; type: physicochemical; conditions: ambient temperature, all tested conditions
Method: Single form slurry experiments were conducted for Forms A, D and G in three solvents stems, water, 1:2 v/v IPAc/heptane, and toluene to evaluate their physical form stability as a single polymorph (Table 14). Form A remained unchanged at six day time point. […] Form D remained unchanged for three days in water but converted to a mixture A and D at six days. In 1:2 IPAc/heptane and toluene, Form D converted to a mixture of A and D at three days and then Form A at six days. […] Form D is also a metastable polymorph but its conversion to Form A is kinetically slower than Form G. The conversion was the slowest in water partly due to low solubility.
Approximately 10-20 mg of Forms A, D and G were weighed into 8 mL clear vials equipped with magnetic stir bars (Table 14). Water, IPAc/Heptane (1:2 V/V) and toluene were used as the solvent systems for these competitive slurry experiments. Three selected solvents, 1.0 mL, were added to achieve free-flowing slurry and allowed to equilibrate at room temperature. All slurries will be isolated via centrifuge filtration after three day and six days of equilibration.

[9] = competitive slurry of calcium salts (Salt I + Salt II) in acetone 1.0 mL
[10] = after thermal stress at 60.0 °C
[11] = parent material before thermal stress
[12] = slurry of potassium or sodium salts in acetone + 0.05 mL water

Structure (SMILES) | XRPD, aliquot time point Day 1 [1] | XRPD, aliquot time point Day 7 [1] | Physical form / XRPD pattern change after storage at 60 °C for seven days (in words) [1] | Chemical stability / degradation by HPLC after storage at 60 °C for seven days (in words) [1] | Outcome of competitive slurry of salts (in words) [2] | Aqueous Solubility ([3]; room temperature) | Aqueous Solubility: XRPD (1 day) of solids [3] | Moisture Sorption ([4]; 60% RH) | Moisture Sorption ([4]; 90% RH) | Moisture adsorbed at 60% RH ([4]; DVS, 25.0 °C, 60% RH) | Moisture Sorption 90% RH ([4]; DVS, 25.0 °C, 90% RH) | Moisture Sorption (hygroscopicity in words) ([4]; DVS) | HPLC (% AUC) [1, 10] | Parent Material HPLC (% AUC) [1, 11] | XRPD of solids, aliquot time point Day 1 [2, 12] | XRPD of solids, aliquot time point Day 7 [2, 12] | XRPD Initial [5] | hydration property [4] | XRPD analysis of the post-DVS material [4] | Hygroscopicity (in words) [4] | further results
O=C([O-])CNC(=O)c1ncc(-c2cccc(F)c2)cc1O.[K+] [Salt III] | Salt III | Salt III | no change in physical form | – | most stable polymorphs | – | – | 60% RH: 2.1 wt % | 90% RH: 4.5 wt % | 2.1 wt % | 4.5 wt % | (moderately | 99.9 % AUC | 99.9 % AUC | Salt III | Salt III | Salt III + Salt IX | – | – | moderately hydroscopic; also recorded: moderately hygroscopic | Solid form by XRPD after 1 day ([3]; slurry in deionized water, room temperature, 1 day (24 hour)): converted from Salt III to Salt IX; Solid form by XRPD after 7 day ([3]; slurry in deionized water, room temperature, 7 days): remained as Salt IX; XRPD Post humidity exposure [5]: Salt III + Salt IX; hydration property ([4]; 60% RH): hemi-(60% RH); hydration property ([4]; 90% RH): to mono-hydrate; XRPD Post thermal hold [6]: Salt III; XRPD Post thermal hold, sample left on bench top, 24 hrs [6]: Salt III; XRPD of solid after thermal hold at 130 °C for 2 minutes [6]: consistent with Salt III
O.O=C([O-])CNC(=O)c1ncc(-c2cccc(F)c2)cc1O.[Na+] [Salt IV] | Salt IV | Salt IV | no polymorph conversion or degradation | no polymorph conversion or degradation | – | 19000 µg/mL | Salt IV + Extra | 60% RH: 6.1 wt % | 90% RH: 6.5 wt % | 6.1 wt % | 6.5 wt % | (moderately | 99.9 % AUC | 99.9 % AUC | Salt V + | Salt V | Salt IV | monohydrate | consistent XRPD pattern as the starting material | moderately hydroscopic; also recorded: moderately hygroscopic | XRPD Post thermal hold ([7]; 180-260 °C at 10 °C/min, hold 260 °C/2 min): Salt VI; XRPD Post thermal hold, sample left on bench top, 24 hrs ([7]; 180-260 °C at 10 °C/min, hold 260 °C/2 min, then bench top 24 hrs): Salt VI; XRPD of solid after thermal hold at 260 °C ([7]; held at 260 °C): conversion to a new salt (Salt VI); Form change after slurrying in water for 13 days ([3]; aqueous solubility study, 13 days): no form change; Solubility ([3]; room temperature): 19000 µg/mL; XRPD Post thermal hold [6]: Salt IV; XRPD Post thermal hold, sample left on bench top, 24 hrs [6]: Salt IV; XRPD Pre-thermal hold [6]: Salt IV; XRPD of solid after thermal hold at 130 °C for 2 minutes [6]: consistent with Salt IV
O=C(O)CNC(=O)c1ncc(-c2cccc(F)c2)cc1O [Form G, 2-(5-(3-fluorophenyl)-3-hydroxypicolinamido)acetic acid] | form mixture; also recorded: A + G | only Form A | – | chemically stable | – | – | – | – | – | 0.4 wt % | 7.1 wt % | – | – | – | – | – | – | – | afforded Form A | slightly hygroscopic; also recorded: moderately hygroscopic | HPLC (% AUC) ([1]; after storage at 60.0 °C): >99.9 % AUC; Parent Material HPLC (% AUC) ([1]; before storage at 60.0 °C): >99.3 % AUC; Solubility ([3]; water, thermodynamic from solid, Solubility, room temperature): 61 µg/mL (≈ 210 µM); Moisture Sorption 60% RH ([4]; DVS, 25.0 °C, 60% RH): 0.4%; Moisture Sorption 90% RH ([4]; DVS, 25.0 °C, 90% RH, listed as G): 7.1 wt %; Weight moisture uptake at 60% RH ([4]; DVS, 60% RH): about 0.4 % weight; Weight moisture uptake at 90% RH ([4]; DVS, 90% RH): about 7.1 % weight; Outcome in the single form and competitive slurry experiments (in words) [8]: converted to Form A

Further lines, with some results ahead:

XRPD, aliquot time point Day 1 [1] | XRPD, aliquot time point Day 7 [1] | Physical form / XRPD pattern change after storage at 60 °C for seven days (in words) [1] | Chemical stability / degradation by HPLC after storage at 60 °C for seven days (in words) [1] | Outcome of competitive slurry of salts (in words) [2] | Aqueous Solubility ([3]; room temperature) | Aqueous Solubility: XRPD (1 day) of solids [3] | Moisture Sorption ([4]; 60% RH) | Moisture Sorption ([4]; 90% RH) | Moisture adsorbed at 60% RH ([4]; DVS, 25.0 °C, 60% RH) | Moisture Sorption 90% RH ([4]; DVS, 25.0 °C, 90% RH) | Moisture Sorption (hygroscopicity in words) ([4]; DVS) | HPLC (% AUC) [1, 10] | Parent Material HPLC (% AUC) [1, 11] | XRPD of solids, aliquot time point Day 1 [2, 12] | XRPD of solids, aliquot time point Day 7 [2, 12] | XRPD Initial [5] | hydration property [4] | Structure (SMILES) | XRPD analysis of the post-DVS material [4] | Hygroscopicity (in words) [4] | further results
Salt I | Salt I | no change in physical form | chemically stable | most stable polymorphs | 10 µg/mL | Salt I + Extra | 60% RH: 1.0 wt % | 90% RH: 4.1 wt % | 1.0 wt % | 4.1 wt % | (moderately | – | – | – | – | – | – | O=C([O-])CNC(=O)c1ncc(-c2cccc(F)c2)cc1O.O=C([O-])CNC(=O)c1ncc(-c2cccc(F)c2)cc1O.[Ca+2] [Salt I] | consistent XRPD pattern as the starting material | moderately hydroscopic; also recorded: moderately hygroscopic | XRPD of solids, aliquot time point Day 1 [2, 9]: Salt I; XRPD of solids, aliquot time point Day 7 [2, 9]: Salt I; Solubility ([3]; room temperature): 10 µg/mL; hydration property ([4]; 60% RH): anhydrate (60%; hydration property ([4]; 90% RH): monohydrate
Salt V | Salt V | – | – | most stable polymorphs | 79800 µg/mL | Salt V + Extra | 60% RH: 6.0 wt % | 90% RH: 6.4 wt % | 6.0 wt % | 6.4 wt % | (moderately | 99.9 % AUC | 99.9 % AUC | Salt V + | Salt V | Salt V | monohydrate | O.O=C([O-])CNC(=O)c1ncc(-c2cccc(F)c2)cc1[O-].[Na+].[Na+] [Salt V] | mostly consistent with Salt V with a few missing peaks | moderately hydroscopic; also recorded: moderately hygroscopic | XRPD Post humidity exposure [5]: Salt V; XRPD Pre-thermal hold [6]: Salt V
– | – | – | – | – | – | – | 60% RH: 0.3 wt % | 90% RH: 0.7 wt % | 0.3 wt % | 0.7 wt % | – | – | – | – | – | – | anhydrate | O=C([O-])CNC(=O)c1ncc(-c2cccc(F)c2)cc1O.[Na+] [Salt VI] | consistent XRPD diffractogram | slightly hydroscopic; also recorded: slightly hygroscopic | –
